Data: patent US9518018B2, “3-alkoxy, thioalkyl and amino-4-amino-6-(substituted)picolinates and their use as herbicides” (Dow AgroSciences LLC, priority 2011, dated 2016)

Legend:
[1] = test system: ABUTH: velvetleaf (Abutilon theophrasti); assay: Post-Emergent Test I herbicidal activity; assay type: in vivo; conditions: Abutilon theophrasti, post-emergence, 336 h, read-out: Visual Growth Reduction (%)-14 Days after Application ABUTH; for pest or weed control at 140 g/ha: Table 3, 140 g ai/ha; for pest or weed control at 70 g/ha: Table 3, 70 g ai/ha
Procedure: (§1) Seeds or nutlets of the desired test plant species were planted in Sun Gro Metro-Mix® 360 planting mixture, which typically has a pH of 6.0 to 6.8 and an organic matter content of about 30 percent, in plastic pots with a surface area of 64 square centimeters. When required to ensure good germination and healthy plants, a fungicide treatment and/or other chemical or physical treatment was applied. The plants were grown for 7-21 d in a greenhouse with an approximate 15 h photoperiod which was maintained at about 23-29° C. during the day and 22-28° C. during the night. Nutrients and water were added on a regular basis and supplemental lighting was provided with overhead metal halide 1000-Watt lamps as necessary. The plants were employed for testing when they reached the first or second true leaf stage.
(§2) A weighed amount, determined by the highest rate to be tested, of each test compound was placed in a 25 mL glass vial and was dissolved in 4 mL of a 97:3 v/v mixture of acetone and DMSO to obtain concentrated stock solutions. […] The concentrated stock solutions obtained were diluted with 20 mL of an aqueous mixture containing acetone, water, isopropyl alcohol, DMSO, Atplus 411F crop oil concentrate, and Triton® X-155 surfactant in a 48.5:39:10:1.5:1.0:0.02 v/v ratio to obtain spray solutions containing the highest application rates. Additional application rates were obtained by serial dilution of 12 mL of the high rate solution into a solution containing 2 mL of 97:3 v/v mixture of acetone and DMSO and 10 mL of an aqueous mixture containing acetone, water, isopropyl alcohol, DMSO, Atplus 411F crop oil concentrate, and Triton X-155 surfactant in a 48.5:39:10:1.5:1.0:0.02 v/v ratio to obtain ½×, ¼×, ⅛× and 1/16× rates of the high rate. Compound requirements are based upon a 12 mL application volume at a rate of 187 liters per hectare (L/ha). Formulated compounds were applied to the plant material with an overhead Mandel track sprayer equipped with 8002E nozzles calibrated to deliver 187 L/ha over an application area of 0.503 square meters at a spray height of 18 inches (43 cm) above the average plant canopy height. Control plants were sprayed in the same manner with the solvent blank.
(§3) The treated plants and control plants were placed in a greenhouse as described above and watered by subirrigation to prevent wash-off of the test compounds. After 14 d, the condition of the test plants as compared with that of the untreated plants was determined visually and scored on a scale of 0 to 100 percent where 0 corresponds to no injury and 100 corresponds to complete kill.
(§4) By applying the well-accepted probit analysis as described by J. Berkson in Journal of the […], 48, 565 (1953) and by D. Finney in “Probit Analysis” Cambridge University Press (1952), the above data can be used to calculate GR20, GR50 and GR80 values, which are defined as growth reduction factors that correspond to the effective dose of herbicide required to kill or control 20 percent, 50 percent or 80 percent, respectively, of a target plant.

[2] = test system: CHEAL: lambsquarters (Chenopodium album); assay: Post-Emergent Test I herbicidal activity; assay type: in vivo; conditions: Chenopodium album, post-emergence, 336 h, read-out: Visual Growth Reduction (%)-14 Days after Application CHEAL; for pest or weed control at 140 g/ha: Table 3, 140 g ai/ha; for pest or weed control at 70 g/ha: Table 3, 70 g ai/ha
Procedure: as §1, §2, §3, §4

[3] = test system: CYPES: yellow nutsedge (Cyperus esculentus); assay: Post-Emergent Test I herbicidal activity; assay type: in vivo; conditions: post-emergence, 336 h, read-out: Visual Growth Reduction (%)-14 Days after Application CYPES; for pest or weed control at 140 g/ha: Table 3, 140 g ai/ha; for pest or weed control at 70 g/ha: Table 3, 70 g ai/ha
Procedure: as §1, §2, §3, §4

[4] = test system: EPHHL: wild poinsettia (Euphorbia heterophylla); assay: Post-Emergent Test I herbicidal activity; assay type: in vivo; conditions: post-emergence, 336 h, read-out: Visual Growth Reduction (%)-14 Days after Application EPHHL; for pest or weed control at 140 g/ha: Table 3, 140 g ai/ha; for pest or weed control at 70 g/ha: Table 3, 70 g ai/ha
Procedure: as §1, §2, §3, §4

[5] = test system: ORYSA: rice (Oryza sativa); assay: Post-Emergent Test I herbicidal activity; assay type: in vivo; conditions: post-emergence, 336 h, read-out: Visual Growth Reduction (%)-14 Days after Application ORYSA; for pest or weed control at 140 g/ha: Table 3, 140 g ai/ha; for pest or weed control at 70 g/ha: Table 3, 70 g ai/ha
Procedure: as §1, §2, §3, §4

ZEAMX: corn (Zea mays) = assay: Post-Emergent Test I herbicidal activity; assay type: in vivo; conditions: Zea mays, post-emergence, 336 h, read-out: Visual Growth Reduction (%)-14 Days after Application ZEAMX; for pest or weed control at 140 g/ha: Table 3, 140 g ai/ha; for pest or weed control at 70 g/ha: Table 3, 70 g ai/ha
Procedure: as §1, §2, §3, §4

[6] = test system: ECHCG: barnyardgrass (Echinochloa crus-galli); assay: Post-Emergent Test I herbicidal activity; assay type: in vivo; conditions: post-emergence, 336 h, read-out: Visual Growth Reduction (%)-14 Days after Application ECHCG; for pest or weed control at 140 g/ha: Table 3, 140 g ai/ha; for pest or weed control at 70 g/ha: Table 3, 70 g ai/ha
Procedure: as §1, §2, §3, §4

Compound	melting point	pest or weed control at 140 g/ha [2]	pest or weed control at 140 g/ha [3]	pest or weed control at 140 g/ha [6]	pest or weed control at 140 g/ha [4]	pest or weed control at 140 g/ha [5]	pest or weed control at 140 g/ha (ZEAMX: corn (Zea mays))	pest or weed control at 140 g/ha [1]	other results
COC(=O)c1nc(-c2ccc([Si](C)(C)C)cc2F)c(F)c(N)c1OC	127 to 129 °C	–	–	–	–	–	–	–	–
CNc1cc(-c2ccc(Cl)cc2)nc(C(=O)OC)c1N [Compound 86, Methyl 3-amino-6-(4-chlorophenyl)-4-(methylamino)picolinate]	178 to 200 °C	–	–	–	–	–	–	–	pest or weed control at 280 g/ha ([1]; Table 3, 280 g ai/ha): 40%; pest or weed control at 280 g/ha ([2]; Table 3, 280 g ai/ha): 95%; pest or weed control at 280 g/ha ([3]; Table 3, 280 g ai/ha): 0%; pest or weed control at 280 g/ha ([4]; Table 3, 280 g ai/ha): 50%; pest or weed control at 280 g/ha ([5]; Table 3, 280 g ai/ha): 0%; pest or weed control at 280 g/ha (ZEAMX: corn (Zea mays); Table 3, 280 g ai/ha): 0%
COc1c(C(=O)O)nc(-c2ccc(F)cc2)c(F)c1N [Compound 52]	149 to 151 °C	100%	100%	60%	100%	0%	50%	–	–
COC(=O)c1nc(-c2ccc(Cl)c(OC)c2F)cc(N)c1OC(F)F [Compound 9]	162 to 164 °C	–	–	–	–	–	–	–	–
COC(=O)c1nc(C(C)F)cc(N)c1OC (stereo not drawn) [Compound 83, methyl 4-amino-6-(1-fluoroethyl)-3-methoxypicolinate]	–	0%	0%	0%	0%	0%	0%	0%	–
COC(=O)c1nc(C(F)F)cc(N)c1OC [Compound 92]	–	95%	0%	0%	70%	0%	0%	40%	–
COc1c(N)cc(C(C)F)nc1C(=O)O (stereo not drawn) [Compound 84, 4-amino-6-(1-fluoroethyl)-3-methoxypicolinic acid]	–	30%	0%	0%	0%	0%	0%	10%	–
COC(=O)c1nc(-c2ccc(Cl)c(OC)c2F)cc(NC(C)=O)c1OC [Compound 3, methyl 4-acetamido-6-(4-chloro-2-fluoro-3-methoxyphenyl)-3-methoxypicolinate]	–	100%	0%	0%	100%	0%	10%	100%	–
C#Cc1ccc(-c2nc(C(=O)OC)c(OC)c(N)c2F)cc1 [Compound 30, methyl 4-amino-6-(4-ethynylphenyl)-5-fluoro-3-methoxypicolinate]	–	100%	100%	0%	100%	0%	70%	50%	–
COc1c(N)cc(C(C)(F)F)nc1C(=O)O [Compound 82, 4-amino-6-(1,1-difluoroethyl)-3-methoxypicolinic acid]	–	85%	0%	0%	80%	0%	0%	20%	–
COC(=O)c1nc(-c2ccc(I)c(F)c2)c(F)c(N)c1OC [Compound 27]	–	90%	100%	60%	100%	0%	70%	60%	–
COC(=O)c1nc(-c2ccc(Br)c(F)c2)c(F)c(N)c1OC [Compound 21]	–	–	–	–	–	–	–	–	pest or weed control at 70 g/ha [1]: 85%; pest or weed control at 70 g/ha [2]: 100%; pest or weed control at 70 g/ha [3]: 70%; pest or weed control at 70 g/ha [6]: 50%; pest or weed control at 70 g/ha [4]: 100%; pest or weed control at 70 g/ha [5]: 0%; pest or weed control at 70 g/ha (ZEAMX: corn (Zea mays)): 50%
COC(=O)c1nc(-c2ccc(Cl)cc2F)c(F)c(N)c1OC [Compound 69]	–	–	–	–	–	–	–	–	pest or weed control at 70 g/ha [1]: 85%; pest or weed control at 70 g/ha [2]: 0%; pest or weed control at 70 g/ha [3]: 100%; pest or weed control at 70 g/ha [6]: 30%; pest or weed control at 70 g/ha [4]: 100%; pest or weed control at 70 g/ha [5]: 0%; pest or weed control at 70 g/ha (ZEAMX: corn (Zea mays)): 10%
COc1c(C(=O)O)nc(-c2ccc(Cl)cc2F)c(F)c1N [Compound 71]	–	–	–	–	–	–	–	–	pest or weed control at 70 g/ha [1]: 80%; pest or weed control at 70 g/ha [2]: 90%; pest or weed control at 70 g/ha [3]: 100%; pest or weed control at 70 g/ha [6]: 85%; pest or weed control at 70 g/ha [4]: 100%; pest or weed control at 70 g/ha [5]: 0%; pest or weed control at 70 g/ha (ZEAMX: corn (Zea mays)): 70%
COc1c(C(=O)O)nc(-c2ccc(Cl)c(Cl)c2)c(F)c1N [Compound 79]	–	–	–	–	–	–	–	–	pest or weed control at 70 g/ha [1]: 80%; pest or weed control at 70 g/ha [2]: 100%; pest or weed control at 70 g/ha [3]: 90%; pest or weed control at 70 g/ha [6]: 70%; pest or weed control at 70 g/ha [4]: 95%; pest or weed control at 70 g/ha [5]: 15%; pest or weed control at 70 g/ha (ZEAMX: corn (Zea mays)): 80%
COC(=O)c1nc(-c2ccc(I)cc2)c(F)c(N)c1OC [Compound 23, methyl 4-amino-5-fluoro-6-(4-iodophenyl)-3-methoxypicolinate]	–	100%	100%	80%	100%	0%	70%	70%	–
COC(=O)c1nc(-c2cc(F)c([Si](C)(C)C)cc2F)c(F)c(N)c1OC	137 to 139 °C	–	–	–	–	–	–	–	–
COC(=O)c1nc(-c2ccc([Si](C)(C)C)c(F)c2F)c(F)c(N)c1OC	123 to 125 °C	–	–	–	–	–	–	–	–
